In US20250127913A1, “BIFUNCTIONAL FOLATE RECEPTOR BINDING COMPOUNDS” (LYCIA THERAPEUTICS, INC., priority 2021, published 2025):
Like-named read-outs stand apart in the source and are kept apart here.

Columns and labels:
TNFα trimer = TNFα trimer (Homo sapiens, UniProt P01375); experiment: SPR binding kinetics of compounds to TNFα trimer; conditions: for Kd: class symbols; for koff: read-out: kd
Method: Streptavidin 100 μg/mL Streptavidin (Invitrogen Cat #: 434302) diluted in 10 mM sodium acetate, pH 4.5) was immobilized to both the reference and active surfaces as described in Example 51. The surfaces were conditioned with three injections of running Buffer (10 mM HEPES, 150 mMNaCl, 0.05% T20, pH 7.5, 2% DMSO) at a flow rate of 10 μL/min, Contact time: 60 s. Flow rate: 10 μL/min. The active surface was treated with biotinylated linked TNFα trimer 20 μg/mL diluted in running buffer at a flow rate of 5 μL/min contact time: 600 s, yielding a final response of ˜3000 RU. Example compounds were then serially diluted 1:1 in running buffer (10 mM HEPES, 150 mM NaCl, 0.05% T20, pH 7.5, 2% DMSO) from 30 uM to 937.5 nM and flowed over the active and reference surfaces from lowest concentration to greatest concentration in the single-cycle kinetics format, and then allowed to dissociate in running buffer for 7200 s, at 30 μL/min. Sensorgrams were solvent corrected, double-referenced, and the data fitted and analyzed in Biacore Insight Evaluation Software Version 3.0.11.15423.

THP-1 cells = experiment: Compound mediated uptake of TNFα-pHrodo in THP-1 cells (flow cytometry); type: cell-based; design: key to Uptake in THP1 cells (run) 2 / Uptake in THP1 cells (run) 3 / Uptake in THP1 cells (run) 4: + = ΔMFI less than that of I-17; ++ = ΔMFI ≈ to that of I-17; +++ = ΔMFI greater than that of I-17; conditions: ΔMFI compared with I-17, uptake at 10 μM
Method: THP-1 cells, a monocytic leukemia cell line that endogenously express folate receptor beta, were used as a model system to measure example compound stimulated uptake of in-house produced TNFα conjugated to the pH sensitive fluorescent dye pHrodo green (ThermoFisher Scientific #P35369).
THP-1 cells were maintained in RPMI (Gibco #61870143) with 10% v/v FBS (VWR #89510-188) with 2 mM L-alanyl-L-glutamine dipeptide, 100 units/ml penicillin and 100 μg/ml streptomycin (Gibco #15140148). Cells were pelleted, resuspended in folate-free RPMI (Gibco #27016021) and seeded at 50,000 cells per well of a 96 well plate. Example compound was added to each well as a log 2 dilution series ranging from 20 μM to 125 nM final concentration. Cells were incubated for 24 hrs and washed/resuspended in phosphate buffered saline (pH 7.4) with 1% w/v BSA. Uptake was measured using a Novocyte Advanteon Flow Cytometer (Agilent Technologies) with the […] and FITC detection configuration.

FOLR2 = FOLR2 (Homo sapiens (Human), UniProt P14207); experiment: SPR binding kinetics of compounds to folate receptor (FOLR2 immobilized on CM5 chip)
Sequence of FOLR2 (P14207 17-255): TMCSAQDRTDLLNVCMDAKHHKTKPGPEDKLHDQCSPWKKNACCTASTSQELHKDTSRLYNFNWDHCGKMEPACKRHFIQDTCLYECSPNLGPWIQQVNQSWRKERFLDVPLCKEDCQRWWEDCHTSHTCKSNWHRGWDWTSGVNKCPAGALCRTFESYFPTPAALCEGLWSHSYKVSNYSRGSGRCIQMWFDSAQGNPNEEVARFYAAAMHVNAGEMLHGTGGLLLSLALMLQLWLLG
Method: A Biacore 8K+ was used to measure the association and dissociation rates of example compounds to FOLR2 (Acro Biosystems, Cat: F02-H5223-100 μg). Briefly, FOLR2 was reconstituted according to the manufacture's instructions to 200 μg/mL. Both the active and reference surfaces of a Cytiva CM5 Series S Sensor Chip were activated with a 1:1 mixture of 400 mM EDC and 100 mM NHS for 420 s at 10 μL/min. 25 μg/mL FOLR2 diluted in Sodium Acetate pH 5.5 was injected on the active channel (Flow Cell 2) for 420 s at 10p/min. Both the reference and active surfaces were then capped with 1M ethanolamine, pH 8.5 for 420 s, achieving an immobilization level of ˜4200 RU. Example compounds were serially diluted 1:1 in running buffer (10 mM HEPES, 150 mM NaCl, 0.05% T20, pH 7.5, 2% DMSO) from 100 nM to 3.125 nM and flowed over the active and reference surfaces for 120 s, and then allowed to dissociate in running buffer for 600 s, at 30 uL/min. The FOLR2 immobilized active surface and the reference surface were regenerated with a 30 s pulse of Sodium Acetate pH 5.5 at 30 μL/min. Sensorgrams were solvent corrected, double-referenced, and the data fitted and analyzed in Biacore Insight Evaluation Software Version 3.0.11.15423.

Sequence of TNFα trimer (P01375 77-233 limits assumed): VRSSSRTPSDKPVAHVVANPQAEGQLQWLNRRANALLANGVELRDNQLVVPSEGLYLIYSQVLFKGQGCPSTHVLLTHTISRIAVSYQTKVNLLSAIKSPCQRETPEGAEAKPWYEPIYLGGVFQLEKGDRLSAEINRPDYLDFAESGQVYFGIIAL

Row | Kd (TNFα trimer) [nM] | Kd (FOLR2) [nM] | koff (TNFα trimer; SPR single cycle kinetics, TNFalpha trimer immobilized) [s⁻¹] | SMILES | Uptake in THP1 cells (run) 2 (THP-1 cells) | Uptake in THP1 cells (run) 3 (THP-1 cells) | Uptake in THP1 cells (run) 4 (THP-1 cells) | koff (TNFα trimer) [s⁻¹]
1 | < 100 |  |  | Cc1nc2cc(F)c(-c3cnc(OCCCCCNC(=O)CC[C@H](NC(=O)c4ccc(NCc5cnc6nc(N)nc(O)c6n5)cc4)C(=O)O)nc3)nc2c(N[C@H](C)c2cc(C#N)ccc2F)c1Cl [Compound I-13, N2-(4-(((2-amino-4-hydroxypteridin-6-yl)methyl)amino)benzoyl)-N5-(5-((5-(7-chloro-8-(((R)-1-(5-cyano-2-fluorophenyl)ethyl)amino)-3-fluoro-6-methyl-1,5-naphthyridin-2-yl)pyrimidin-2-yl)oxy)pentyl)-L-glutamine] | + | ++ | ++ | 
2 | < 1000 |  |  | Cc1nc2cc(F)c(-c3cnc(OCCCCCn4cc(COCCOCCOCCOCCNC(=O)CC[C@H](NC(=O)c5ccc(NCc6cnc7nc(N)nc(O)c7n6)cc5)C(=O)O)nn4)nc3)nc2c(N[C@H](C)c2cc(C#N)ccc2F)c1Cl [Compound I-17, (S)-18-(4-(((2-amino-4-hydroxypteridin-6-yl)methyl)amino)benzamido)-1-(1-(5-((5-(7-chloro-8-((I-1-(5-cyano-2-fluorophenyl)ethyl)amino)-3-fluoro-6-methyl-1,5-naphthyridin-2-yl)pyrimidin-2-yl)oxy)pentyl)-1H-1,2,3-triazol-4-yl)-15-oxo-2,5,8,11-tetraoxa-14-azanonadecan-19-oic acid] | ++ | ++ | +++ | 

Second part, the compound before the results:

Row | SMILES | Kd (TNFα trimer) [nM] | Kd (FOLR2) [nM] | koff (TNFα trimer; SPR single cycle kinetics, TNFalpha trimer immobilized) [s⁻¹] | Uptake in THP1 cells (run) 2 (THP-1 cells) | Uptake in THP1 cells (run) 3 (THP-1 cells) | Uptake in THP1 cells (run) 4 (THP-1 cells) | koff (TNFα trimer) [s⁻¹]
3 | Nc1nc(O)c2nc(CNc3ccc(C(=O)N[C@@H](CCC(=O)NCCOCCOCCOCCOCc4cn(CCCCCOc5ccc(-c6ccc7nc(COc8cccc(N9CCCC9=O)c8)n(Cc8ccccc8OC(F)F)c7c6)cn5)nn4)C(=O)O)cc3)cnc2n1 [Compound I-25, (S)-18-(4-(((2-amino-4-hydroxypteridin-6-yl)methyl)amino)benzamido)-1-(1-(5-((5-(1-(2-(difluoromethoxy)benzyl)-2-((3-(2-oxopyrrolidin-1-yl)phenoxy)methyl)-1H-benzo[d]imidazol-6-yl)pyridin-2-yl)oxy)pentyl)-1H-1,2,3-triazol-4-yl)-15-oxo-2,5,8,11-tetraoxa-14-azanonadecan-19-oic acid] | < 100 | 0.5 | 3.65e-06 | + | +++ | ++ | 
4 | Cc1nc2cc(F)c(-c3cnc(OCCCCCn4cc(COCCOCCNC(=O)CC[C@H](NC(=O)c5ccc(NCc6cnc7nc(N)nc(O)c7n6)cc5)C(=O)O)nn4)nc3)nc2c(N[C@H](C)c2cc(C#N)ccc2F)c1Cl [Compound I-16, N2-(4-(((2-amino-4-hydroxypteridin-6-yl)methyl)amino)benzoyl)-N5-(2-(2-((1-(5-((5-(7-chloro-8-((I-1-(5-cyano-2-fluorophenyl)ethyl)amino)-3-fluoro-6-methyl-1,5-naphthyridin-2-yl)pyrimidin-2-yl)oxy)pentyl)-1H-1,2,3-triazol-4-yl)methoxy)ethoxy)ethyl)-L-glutamine] | < 100 | 0.3 |  | +++ | +++ | ++ | 5.81e-05
5 | Cc1nc2ccc(-c3cnn(CCCCCCn4cc(COCCOCCOCCOCCNC(=O)CC[C@H](NC(=O)c5ccc(NCc6cnc7nc(N)nc(O)c7n6)cc5)C(=O)O)nn4)c3)cn2c1Cc1cc(Cl)ccc1Cl [Compound I-26, (S)-18-(4-(((2-amino-4-hydroxypteridin-6-yl)methyl)amino)benzamido)-1-(1-(6-(4-(3-(2,5-dichlorobenzyl)-2-methylimidazo[1,2-a]pyridin-6-yl)-1H-pyrazol-1-yl)hexyl)-1H-1,2,3-triazol-4-yl)-15-oxo-2,5,8,11-tetraoxa-14-azanonadecan-19-oic acid] | < 5000 | 0.2 |  | +++ | + | + | 
